According to patent US8629178B2, “Sodium tanshinone IIA sulfonate hydrate and preparation method and use thereof” (priority 2009, dated 2014):

How the values were obtained:
Hygroscopicity test = type: physicochemical; details: 25° C.; for Relative to 0 h, weight gain %: relative humidity 75%, sampling time 48 h
Source text: The hygroscopicity test performed according to the Pharmacopoeia of the People's Republic of China (2005 Edition) confirmed that the sodium tanshinone IIA sulfonate hydrate of the present invention is much lower than anhydrous sodium tanshinone IIA sulfonate.
Samples of sodium tanshinone IIA sulfonate hydrates and anhydrous sodium tanshinone IIA sulfonate: anhydrous sodium tanshinone IIA sulfonate and the hydrates of the present invention, about 5 g for each, were placed in dry watch glass with constant weight, precisely weighed, subjected to the test at 25° C. and a relative humidity (RH) of 75%, separately sampled at 0 h and 48 h of the test, and the percentages of weight gain due to hygroscopicity was calculated.

[1] = Accelerated stability test (increase of the relative substances by HPLC); type: physicochemical; details: RH75%, 30° C., lucifuge, sealed in ampoules, sampling time 6 month
Procedure: In addition, the accelerated stability test performed according to the Pharmacopoeia of the People's Republic of China (2005 Edition) confirmed that the sodium tanshinone IIA sulfonate hydrate crystal had better storage stability than anhydrous sodium tanshinone IIA sulfonate, and thus can be stably stored for a more longer period.
Under RH75%, 30° C. and lucifuge condition, the samples of sodium tanshinone IIA sulfonate hydrate crystals and anhydrous sodium tanshinone IIA sulfonate were separately sealed in ampoules for accelerated stability test, chromatographic conditions: column Kromasil C18 (250 mm×4.6 mm, 5 μm), mobile phase: methanol—0.02 mol/L potassium dihydrogen phosphate solution (adjusted with phosphoric acid to pH=4) (60:40), detection wavelength: 271 nm, flow rate: 1 ml/min, to measure increase extent of the relative substances (see results in Tables 1-2).

[2] = tested on: calcium paradox cardiac muscle tissue; experiment: Protection effects on calcium paradox cardiac muscle (ex vivo heart perfusion, Langendorff); parameters: species or system guinea pigs; details: hydrates 32 mg/L, Iproveratril 2.1 mg/L; for Calcium uptake, x ± S μmol/min/g, dry weight: cardiac muscle tissue; for Calcium uptake, x ± S μmol/min/g, dry weight / Protein release, x ± S mg/min/g, dry weight: 8 guinea pigs per group; for Protein release, x ± S mg/min/g, dry weight: coronary artery effluent of 20 min after calcium restored; for Calcium uptake decrease rate, % / Protein release decrease rate, %: relative to calcium paradox group
Procedure: 48 Healthy guinea pigs, body weight 280-360 g, were divided into 6 groups, 8 guinea pigs per group, separately comprising: normal control group, calcium paradox group, iproveratril positive control group, 3 drug-administrated groups, the animals were fasted for one night before test, intraperitoneally injected with heparin 0.5 mg/kg, intraperitoneally injected with pentobarbital sodium 30 mg/kg after 20 min, their chests were opened after anesthesia, and hearts were taken out quickly, immersed in Kreb's-Henseleit (K-H) perfusion solution as cooled with ice, after aortic cannulation, the hearts were placed in ex vivo heart perfusion device with constant temperature and constant pressure. […] The effluent of coronary artery of 20 min when calcium-containing perfusion solution was restored was collected, the protein release amounts mg/min/g drywt and cardiac muscle tissue calcium uptake μmol/g drywt in the collected coronary artery effluents were measured according to the reference document.

[3] = tested on: arrhythmia induced by calcium chloride in rats; experiment: Effects on arrhythmia induced by calcium chloride in rats; type: in vivo, SD rats; details: intravenous injection, 10 animals per group, 2.5% calcium chloride 100 mg/kg, hydrates 10 mg/kg, Quinidine 13.5 mg/kg
Procedure: 50 SD rats were provided, male and female, body weight 226±31 g, randomly divided into 5 groups, separately administered by intravenous injection with physiological saline, Quinidine, […] The rats were anaesthetized with 3% pentobarbital sodium 40 mg·kg^−1, fixed in supine position on operation table, injected via lingual vein for 6 minutes, quickly intravenously injected (completed injection in 5 s) with 2.5% calcium chloride 100 mg·kg^−1 (0.4 ml/100 g), the number of animal with ventricular fibrillation and the number of died animals were recorded.

[4] = tested on: ischemic reperfusion brain tissues of rats; experiment: Effects on rat ischemic reperfusion (NO, NOS, MDA, SOD in brain tissue); type: in vivo, Wistar rats; details: for Result of the ischemic reperfusion test in words: compared with sodium tanshinone IIA sulfonate 1.5 hydrate
Procedure: 36 Male Wistar rats, body weight 250-300 g, were randomly divided into 3 groups: sham operation group, ischemic reperfusion group, and group of drug of the invention, 12 rats per group. As for group of drug of the invention: the rats were peritoneally administered with sodium tanshinone IIA sulfonate 1.5 hydrate in physiological saline, does of 40 mg/kg, twice per day, for consecutive 7 days, and subjected to cerebral ischemia operation 60 min after the last administration; the rats of sham operation group and ischemic reperfusion group were administered with the same volume of isometric physiological saline, respectively.
The rats were anesthetized with 10% chloral hydrate (3.5 ml/kg) by peritoneal injection, fixed in supine position, modeled by the improved Zea Longa thread occlusion method in document [Journal of Shanghai Jiaotong University (Medicine), 2007, 27(10):1218-1222]; in the sham operation group, thread was merely inserted 10 mm, and other steps were the same as the model group, animals appeared operation-side Horner syndrome and opposite-side movement disorder were deemed as successfully established models. After successful establishment of models, the animals were administered in the same dose as above twice per day, and the sham operation group and ischemic reperfusion group were administered with the same volume of isometric physiological saline, respectively. The thread was drawn out 2 h after model establishment, the rats were executed 24 h after reperfusion, their brains were taken out quickly and weighed. Physiological saline was used to prepare 10% brain tissue homogenate solution at low temperature, centrifuged at low temperature, 3000 r/min for 10 min, the deposit was discarded, the supernatant was taken up and tested to determine SOD, MDA, NO, NOS contents or activities according to the specifications of the corresponding commercial SOD, MDA, NO, NOS kits, the results are shown in Table 4.

[5] = rat brain tissue homogenate, 40 mg/kg peritoneally twice per day, 2 h ischemia, 24 h reperfusion

## Cc1c(S(=O)(=O)[O-])oc2c1C(=O)C(=O)c1c-2ccc2c1CCCC2(C)C.[Na+] [Anhydrous Sodium Tanshinone IIA Sulfonate, reference compound]
Hygroscopicity test
  Relative to 0 h, weight gain %: 11.43%
Hygroscopicity test; compared with the sodium tanshinone IIA sulfonate hydrates, RH 75%, 48 h
  Hygroscopicity in words: much higher
[1]
  Relative to 0 month, multiple of the relative substances: 1.21

## COc1ccc(CCN(C)CCCC(C#N)(c2ccc(OC)c(OC)c2)C(C)C)cc1OC (stereo not drawn) [Iproveratril, reference compound]
[2]
  Calcium uptake, x ± S μmol/min/g, dry weight: 36.9 ± 2.5 μmol/min/g, dry weight
  Protein release, x ± S mg/min/g, dry weight: 2.6 ± 0.2 mg/min/g, dry weight
  Calcium uptake decrease rate, %: 22.5%
  Protein release decrease rate, %: 48%

## C=C[C@H]1C[N@@]2CC[C@H]1C[C@@H]2[C@@H](O)c1ccnc2ccc(OC)cc12 [Quinidine, reference compound]
[3]
  Arrhythmic animal number (n), Heart arrest: 4 n
  Arrhythmic animal number (n), Ventricular fibrillation: 6 n

## Sodium Tanshinone IIA Sulfonate 0.5 Hydrate
Hygroscopicity test
  Relative to 0 h, weight gain %: 7.96%
[1]
  Relative to 0 month, multiple of the relative substances: 0.34
[2]
  Calcium uptake, x ± S μmol/min/g, dry weight: 34.5 ± 2.4 μmol/min/g, dry weight
  Protein release, x ± S mg/min/g, dry weight: 2.4 ± 0.2 mg/min/g, dry weight
  Calcium uptake decrease rate, %: 27.5%
  Protein release decrease rate, %: 52%
[4]
  Result of the ischemic reperfusion test in words: results similar to those of the sodium tanshinone IIA sulfonate 1.5 hydrate
[3]
  Arrhythmic animal number (n), Heart arrest: 4 n
  Arrhythmic animal number (n), Ventricular fibrillation: 5 n

## Sodium Tanshinone IIA Sulfonate 1.5 Hydrate
Hygroscopicity test
  Relative to 0 h, weight gain %: 4.12%
[1]
  Relative to 0 month, multiple of the relative substances: 0.25
[2]
  Calcium uptake, x ± S μmol/min/g, dry weight: 35.2 ± 2.8 μmol/min/g, dry weight
  Protein release, x ± S mg/min/g, dry weight: 2.4 ± 0.3 mg/min/g, dry weight
  Calcium uptake decrease rate, %: 26.1%
  Protein release decrease rate, %: 52%
[4]; [5]
  MDA: 2.26 ± 0.62 nmol/mL
  NO: 24 ± 6.35 µmol/L
  NOS: 22 ± 5.31 U/ml
  SOD: 245 ± 21.59 U/ml
[3]
  Arrhythmic animal number (n), Heart arrest: 6 n
  Arrhythmic animal number (n), Ventricular fibrillation: 5 n

## Sodium Tanshinone IIA Sulfonate 2.5 Hydrate
Hygroscopicity test
  Relative to 0 h, weight gain %: 1.25%
[1]
  Relative to 0 month, multiple of the relative substances: 0.31
[2]
  Calcium uptake, x ± S μmol/min/g, dry weight: 35.4 ± 3.1 μmol/min/g, dry weight
  Protein release, x ± S mg/min/g, dry weight: 2.5 ± 0.2 mg/min/g, dry weight
  Calcium uptake decrease rate, %: 25.6%
  Protein release decrease rate, %: 50%
[4]
  Result of the ischemic reperfusion test in words: results similar to those of the sodium tanshinone IIA sulfonate 1.5 hydrate
[3]
  Arrhythmic animal number (n), Heart arrest: 5 n
  Arrhythmic animal number (n), Ventricular fibrillation: 6 n
